These are literature values, as cited in patent US8048850B2, “Covalent conjugates between artemisinin-related endoperoxides and iron-carrying proteins and methods of use” (University of Washington, priority 2002, dated 2011).

The conditions of this series: cancer patient; oral dose of 50 mg per day; intramuscular dose of 60 mg/day; period of 9 months.

The structures appear in SMILES notation.

Regarding `C[C@H]1[C@H](OC(=O)CCC(=O)O)O[C@@H]2O[C@@]3(C)CC[C@H]4[C@H](C)CC[C@@H]1[C@@]24OO3` [artesunate], the adverse side effects result is given as “No apparent adverse side effects”.
